Molecules are shown by their SMILES.

We go through eleven compounds from US20230391772A1, “METHODS AND COMPOSITIONS FOR TARGETED PROTEIN DEGRADATION” (Ranok Therapeutics (Hangzhou) Co. Ltd., priority 2020, published 2023).

The target of one test is T1, HSP90a protein (Homo sapiens, UniProt P07900).
T1 construct: purchased BPS Bioscience 50298
Put plainly: HSP90α-binding fluorescent polarization (FP) assay, BODIPY-labeled RNK04010 probe. The conditions noted are these: FP competition with RNK04010 (BODIPY-labeled), 5 nM, 300 min at 25° C. The essentials:
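Compounds (20 μM down to 5.2 nM, 2.5-fold steps) compete with a 5 nM fluorescent tracer for N-terminal HSP90a, measured by fluorescence polarization. With FITC-geldanamycin, plates sit 120 min at 25 °C. With BODIPY-RNK04010, they sit 300 min at 25 °C.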

Test [1] concerns NCI-H358 human non-small cell lung cancer. Put plainly: NCI-H358 CCK-8 proliferation assay. The test is classed as cell-based. The following applies: NCI-H358 cells, 72 hr. The essentials:
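Proliferation of mutant-KRAS(G12C) cells (2 copies in MIA PaCa-2, single copy in NCI-H358/NCI-H23) measured with CCK-8 after treatment across 20 μM–1.02 nM; inhibition expressed relative to vehicle-treated wells after subtracting no-cell background.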

As for `C=CC(=O)N1CCN(c2nc(NCCC(=O)N3CCC(CN4CCN(Cc5ccc(-n6c(C(=O)NCC(F)(F)F)nnc6-c6cc(C)c(O)cc6O)cc5)CC4)CC3)nc3c2CCN(c2cccc4ccccc24)C3)C[C@H]1CC#N` [Compound 77, (R)-4-(4-((4-((1-(3-((4-(4-acryloyl-3-(cyanomethyl)piperazin-1-yl)-7-(naphthalen-1-yl)-5,6,7,8-tetrahydropyrido[3,4-d]pyrimidin-2-yl)amino)propanoyl)piperidin-4-yl)methyl)piperazin-1-yl)methyl)phenyl)-5-(2,4-dihydroxy-5-methylphenyl)-N-(2,2,2-trifluoroethyl)-4H-1,2,4-triazole-3-carboxamide, trifluoroacetic acid], the half-inhibitory concentration (IC50) – broadly, the point on the concentration scale where inhibition reaches its midpoint – on HSP90a protein lay within 100 to 1000 nM. Besides, the half-maximal effective concentration (EC50) (in general, the concentration giving half of the maximal effect) in test [1] lay within 100 to 1000 nM.
`C=CC(=O)N1CCN(c2nc(NCCC(=O)NCc3ccc(-n4c(O)nnc4-c4ccc(O)cc4O)cc3)nc3c2CCN(c2cccc4ccccc24)C3)C[C@H]1CC#N` [Compound 81] returned a half-maximal inhibitory concentration (IC50) on HSP90a protein of over 1000 nM. Also, the concentration for a half-maximal effect (EC50) in test [1] is over 1000 nM.
For `C=CC(=O)N1CCN(c2nc(NCCC(=O)NCc3ccc(-n4c(O)nnc4-c4cc(C(C)C)c(O)cc4O)cc3C(F)(F)F)nc3c2CCN(c2cccc4ccccc24)C3)C[C@H]1CC#N` [Compound 82, (R)-3-((4-(4-acryloyl-3-(cyanomethyl)piperazin-1-yl)-7-(naphthalen-1-yl)-5,6,7,8-tetrahydropyrido[3,4-d]pyrimidin-2-yl)amino)-N-(4-(3-(2,4-dihydroxy-5-isopropylphenyl)-5-hydroxy-4H-1,2,4-triazol-4-yl)-2-(trifluoromethyl)benzyl)propanamide, trifluoroacetic acid], on HSP90a protein, the concentration for half-maximal inhibition (IC50) lay within 100 to 1000 nM. The compound also returned an EC50 in test [1] of over 1000 nM.
At HSP90a protein, `C=CC(=O)N1CCN(c2nc(NCCC(=O)NCc3ccc(-n4c(O)nnc4-c4cc(CC)c(O)cc4O)cc3F)nc3c2CCN(c2cccc4cccc(Cl)c24)C3)C[C@H]1CC#N` [Compound 83, (R)-3-((4-(4-acryloyl-3-(cyanomethyl)piperazin-1-yl)-7-(8-chloronaphthalen-1-yl)-5,6,7,8-tetrahydropyrido[3,4-d]pyrimidin-2-yl)amino)-N-(4-(3-(5-ethyl-2,4-dihydroxyphenyl)-5-hydroxy-4H-1,2,4-triazol-4-yl)-2-fluorobenzyl)propanamide, trifluoroacetic acid] came in with an IC50 of over 1000 nM. The EC50 in test [1] is over 1000 nM.
Turning to `C=CC(=O)N1CCN(c2nc(NCCC(=O)N3CCC(Cc4ccc(-n5c(O)nnc5-c5cc(C(C)C)c(O)cc5O)cc4)CC3)nc3c2CCN(c2cccc4ccccc24)C3)C[C@H]1CC#N` [Compound 84, (R)-2-(1-acryloyl-4-(2-((3-(4-(4-(3-(2,4-dihydroxy-5-isopropylphenyl)-5-hydroxy-4H-1,2,4-triazol-4-yl)benzyl)piperidin-1-yl)-3-oxopropyl)amino)-7-(naphthalen-1-yl)-5,6,7,8-tetrahydropyrido[3,4-d]pyrimidin-4-yl)piperazin-2-yl)acetonitrile, trifluoroacetic acid], on HSP90a protein, the half-inhibitory concentration (IC50) was in the range of 100 to 1000 nM. Further, the EC50 in test [1] lay in the range of 100 to 1000 nM.
Regarding `C=CC(=O)N1CCN(c2nc(NCCC(=O)NCCc3ccc(-n4c(O)nnc4-c4cc(C(C)C)c(O)cc4O)cc3)nc3c2CCN(c2cccc4ccccc24)C3)C[C@H]1CC#N` [Compound 85, (R)-3-((4-(4-acryloyl-3-(cyanomethyl)piperazin-1-yl)-7-(naphthalen-1-yl)-5,6,7,8-tetrahydropyrido[3,4-d]pyrimidin-2-yl)amino)-N-(4-(3-(2,4-dihydroxy-5-isopropylphenyl)-5-hydroxy-4H-1,2,4-triazol-4-yl)phenethyl)propanamide, trifluoroacetic acid], the IC50 at HSP90a protein fell in the range of 100 to 1000 nM. This compound also showed a half-maximal effective concentration (EC50) in test [1] of over 1000 nM.
The like results for `C=CC(=O)N1CCN(c2nc(NCCC(=O)N3CCN(Cc4ccc5c(c4)CN(C(=O)c4ccc(O)cc4O)C5)CC3)nc3c2CCN(c2cc(O)cc4ccccc24)C3)CC1` [Compound 86, 1-(4-(2-((3-(4-((2-(2,4-dihydroxybenzoyl)isoindolin-5-yl)methyl)piperazin-1-yl)-3-oxopropyl)amino)-7-(3-hydroxynaphthalen-1-yl)-5,6,7,8-tetrahydropyrido[3,4-d]pyrimidin-4-yl)piperazin-1-yl)prop-2-en-1-one, trifluoroacetic acid] were, in that order, over 1000 nM and over 1000 nM.
The like results for `C=CC(=O)N1CCN(c2nc(NCCC(=O)N3CCN(c4ccc(-n5c(O)nnc5-c5cc(C(C)C)c(O)cc5O)cc4)CC3)nc3c2CCN(c2cccc4cccc(Cl)c24)C3)C[C@H]1CC#N` [Compound 88, (R)-2-(1-acryloyl-4-(7-(8-chloronaphthalen-1-yl)-2-((3-(4-(4-(3-(2,4-dihydroxy-5-isopropylphenyl)-5-hydroxy-4H-1,2,4-triazol-4-yl)phenyl)piperazin-1-yl)-3-oxopropyl)amino)-5,6,7,8-tetrahydropyrido[3,4-d]pyrimidin-4-yl)piperazin-2-yl)acetonitrile, trifluoroacetic acid] were, in that order, 100 to 1000 nM and over 1000 nM.
The like results for `C=CC(=O)N1CCN(c2nc(NCCC(=O)NCc3ccc(-n4c(O)nnc4-c4cc(CCC)c(O)cc4O)cc3)nc3c2CCN(c2cccc4cccc(Cl)c24)C3)C[C@H]1CC#N` [Compound 89, (R)-3-((4-(4-acryloyl-3-(cyanomethyl)piperazin-1-yl)-7-(8-chloronaphthalen-1-yl)-5,6,7,8-tetrahydropyrido[3,4-d]pyrimidin-2-yl)amino)-N-(4-(3-(2,4-dihydroxy-5-propylphenyl)-5-hydroxy-4H-1,2,4-triazol-4-yl)benzyl)propenamide] were, in that order, over 1000 nM and over 1000 nM.
`C=CC(=O)N1CCN(c2nc(NCCC(=O)N3CCN(c4ccc(-n5c(O)nnc5-c5cc(C(C)C)c(O)cc5O)cc4)CC3)nc3c2CCN(c2cccc4ccccc24)C3)C[C@H]1CC#N` [Compound 90, (R)-2-(1-acryloyl-4-(2-((3-(4-(4-(3-(2,4-dihydroxy-5-isopropylphenyl)-5-hydroxy-4H-1,2,4-triazol-4-yl)phenyl)piperazin-1-yl)-3-oxopropyl)amino)-7-(naphthalen-1-yl)-5,6,7,8-tetrahydropyrido[3,4-d]pyrimidin-4-yl)piperazin-2-yl)acetonitrile, trifluoroacetic acid] showed an IC50 at HSP90a protein of 100 to 1000 nM. The compound also returned a half-maximal effective concentration (EC50) in test [1] of over 1000 nM.
The like results for `C=CC(=O)N1CCN(c2nc(NCCC(=O)NCc3ccc(-n4c(O)nnc4-c4cc(C(C)C)c(O)cc4O)cc3)nc3c2CCN(c2cccc4ccccc24)C3)C[C@H]1CC#N` [Compound 91, (R)-3-((4-(4-acryloyl-3-(cyanomethyl)piperazin-1-yl)-7-(naphthalen-1-yl)-5,6,7,8-tetrahydropyrido[3,4-d]pyrimidin-2-yl)amino)-N-(4-(3-(2,4-dihydroxy-5-isopropylphenyl)-5-hydroxy-4H-1,2,4-triazol-4-yl)benzyl)propanamide, trifluoroacetic acid] were, in that order, over 1000 nM and over 1000 nM.
